# Data: patent US20210300936A1, “PYRAZOLOTRIAZOLOPYRIMIDINE DERIVATIVES AS A2A RECEPTOR ANTAGONIST” (BEIGENE, LTD., priority 2018, published 2021)
# pIC50: −log10 of the molar value.
# Molecular target: human A2A receptor (A2AR) (Homo sapiens, UniProt P29274)
# Assay: Luciferase reporter assay (HEK293-A2AR-luc2p/CRE/Hygro cells, 3 nM CGS21680)
# Assay type: cell-based
# Conditions: 3 nM CGS21680, 5 h incubation
# Procedure, shortened: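 Antagonist (0.1–10000 nM) and 3 nM CGS21680 were co-added for 5 h to stable HEK293-A2AR-luc2p/CRE cells, 18 h after seeding in 1% FBS medium containing adenosine deaminase. Luminescence was normalized to agonist alone (100%), and IC50 came from the dose–inhibition curve.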
# Chain of human A2A receptor (A2AR) (P29274 whole entry): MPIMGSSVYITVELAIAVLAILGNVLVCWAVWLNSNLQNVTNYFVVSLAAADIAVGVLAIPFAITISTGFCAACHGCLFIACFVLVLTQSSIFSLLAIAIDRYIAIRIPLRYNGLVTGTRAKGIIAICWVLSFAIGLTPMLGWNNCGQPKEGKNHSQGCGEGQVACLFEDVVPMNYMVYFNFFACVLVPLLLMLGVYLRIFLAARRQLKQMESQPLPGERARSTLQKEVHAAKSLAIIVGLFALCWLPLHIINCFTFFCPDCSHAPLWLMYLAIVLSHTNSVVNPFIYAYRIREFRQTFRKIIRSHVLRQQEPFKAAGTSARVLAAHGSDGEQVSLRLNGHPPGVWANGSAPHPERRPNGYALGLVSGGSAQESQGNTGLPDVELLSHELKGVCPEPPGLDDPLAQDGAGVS
row,SMILES,pIC50
1,"CCCCC(C(=O)N1CCN(c2ccc(OCCN(C)C)cc2)CC1)n1ncc2c1nc(N)n1nc(-c3ccco3)nc21 (centres unmarked) [Compound A32, 2-(5-amino-2-(furan-2-yl)-7H-pyrazolo[4,3-e][1,2,4]triazolo[1,5-c]pyrimidin-7-yl)-1-(4-(4-(2-(dimethylamino)ethoxy)phenyl)piperazin-1-yl)hexan-1-one]",8.14
2,"COCCOc1ccc(N2CCN(C(=O)C(c3ccccc3)n3ncc4c3nc(N)n3nc(-c5ccco5)nc43)[C@@H](C)C2)cc1 (stereo partly drawn) [Compound A52, 2-(5-amino-2-(furan-2-yl)-7H-pyrazolo[4,3-e][1,2,4]triazolo[1,5-c]pyrimidin-7-yl)-1-((S)-4-(4-(2-methoxyethoxy)phenyl)-2-methylpiperazin-1-yl)-2-phenylethan-1-one]",8.06
3,"CN(C)CCOc1ccc(N2CCN(C(=O)C(C)(c3ccccc3)n3ncc4c3nc(N)n3nc(-c5ccco5)nc43)CC2)cc1 (single isomer, unassigned) [Compound A71a]",7.96
4,"COCCOc1ccc(N2CCN(C(=O)C(CC(C)C)n3ncc4c3nc(N)n3nc(-c5ccco5)nc43)CC2)c(F)c1 (centres unmarked) [Compound A23, 2-(5-amino-2-(furan-2-yl)-7H-pyrazolo[4,3-e][1,2,4]triazolo[1,5-c]pyrimidin-7-yl)-1-(4-(2-fluoro-4-(2-methoxyethoxy)phenyl)piperazin-1-yl)-4-methylpentan-1-one]",8.85
5,"CCCC(C(=O)N1CCN(c2ccc(OCCOC)c(F)c2)CC1)n1ncc2c1nc(N)n1nc(-c3ccco3)nc21 (centres unmarked) [Compound A53, 2-(5-amino-2-(furan-2-yl)-7H-pyrazolo[4,3-e][1,2,4]triazolo[1,5-c]pyrimidin-7-yl)-1-(4-(3-fluoro-4-(2-methoxyethoxy)phenyl)piperazin-1-yl)pentan-1-one]",8.30
6,"COCCOc1ccc(N2CCN(C(=O)C(c3ccccc3)n3ncc4c3nc(N)n3nc(-c5ccco5)nc43)CC2C)cc1 (single isomer, unassigned) [Compound A46a]",7.17
7,"COCCOc1ccc(N2CCN(C(=O)C(C)n3ncc4c3nc(N)n3nc(-c5ccco5)nc43)CC2)cc1 (single isomer, unassigned) [Compound A1a, 2-(5-amino-2-(furan-2-yl)-7H-pyrazolo[4,3-e][1,2,4]triazolo[1,5-c]pyrimidin-7-yl)-1-(4-(4-(2-methoxyethoxy)phenyl)piperazin-1-yl)propan-1-one]",6.65
8,"COCCOc1ccc(N2CCN(C(=O)C(c3ccccc3)n3ncc4c3nc(N)n3nc(-c5ccco5)nc43)CC2)c(F)c1 (single isomer, unassigned) [Compound A44a]",7.41
9,"COCCOc1ccc(N2CCN(C(=O)C(c3ccccc3)n3ncc4c3nc(N)n3nc(-c5ccco5)nc43)CC2)c(F)c1 (centres unmarked) [Compound A44, 2-(5-amino-2-(furan-2-yl)-7H-pyrazolo[4,3-e][1,2,4]triazolo[1,5-c]pyrimidin-7-yl)-1-(4-(2-fluoro-4-(2-methoxyethoxy)phenyl)piperazin-1-yl)-2-phenylethan-1-one]",8.70
10,"COCCOc1ccc(N2CCN(C(=O)[C@@](C)(c3ccccc3)n3ncc4c3nc(N)n3nc(-c5ccco5)nc43)CC2)cc1F [Compound A66b, (R)-2-(5-amino-2-(furan-2-yl)-7H-pyrazolo[4,3-e][1,2,4]triazolo[1,5-c]pyrimidin-7-yl)-1-(4-(3-fluoro-4-(2-methoxyethoxy)phenyl)piperazin-1-yl)-2-phenylpropan-1-one]",8.48
11,"COCCOc1ccc(N2CCN(C(=O)C(c3ccccc3F)n3ncc4c3nc(N)n3nc(-c5ccco5)nc43)CC2)cc1 (centres unmarked) [Compound A43, 2-(5-amino-2-(furan-2-yl)-7H-pyrazolo[4,3-e][1,2,4]triazolo[1,5-c]pyrimidin-7-yl)-2-(2-fluorophenyl)-1-(4-(4-(2-methoxyethoxy)phenyl)piperazin-1-yl)ethan-1-one]",9.05
12,"CC(C(=O)N1CCN(c2ccc(OCCN)cc2)CC1)n1ncc2c1nc(N)n1nc(-c3ccco3)nc21 (centres unmarked) [Compound A7, 2-(5-amino-2-(furan-2-yl)-7H-pyrazolo[4,3-e][1,2,4]triazolo[1,5-c]pyrimidin-7-yl)-1-(4-(4-(2-aminoethoxy)phenyl)piperazin-1-yl)propan-1-one]",7.64
13,"COCCOc1ccc(N2CCN(C(=O)C(C)n3ncc4c3nc(N)n3nc(-c5ccco5)nc43)CC2)cc1 (centres unmarked) [Compound A1, 2-(5-amino-2-(furan-2-yl)-7H-pyrazolo[4,3-e][1,2,4]triazolo[1,5-c]pyrimidin-7-yl)-1-(4-(4-(2-methoxyethoxy)phenyl)piperazin-1-yl)propan-1-one]",7.37
14,"COCCOc1ccc(N2CCN(C(=O)C(c3ccccc3)n3ncc4c3nc(N)n3nc(-c5ccco5)nc43)CC2)cc1 (centres unmarked) [Compound A13, 2-(5-amino-2-(furan-2-yl)-7H-pyrazolo[4,3-e][1,2,4]triazolo[1,5-c]pyrimidin-7-yl)-1-(4-(4-(2-methoxyethoxy)phenyl)piperazin-1-yl)-2-phenylethan-1-one]",8.54
15,"COCCOc1cc(F)c(N2CCN(C(=O)C(C)(c3ccccc3)n3ncc4c3nc(N)n3nc(-c5ccco5)nc43)CC2)cc1F (centres unmarked) [Compound A65, 2-(5-amino-2-(furan-2-yl)-7H-pyrazolo[4,3-e][1,2,4]triazolo[1,5-c]pyrimidin-7-yl)-1-(4-(2,5-difluoro-4-(2-methoxyethoxy)phenyl)piperazin-1-yl)-2-phenylpropan-1-one]",8.19
16,"COCCOc1ccc(N2CCN(C(=O)C(C)n3ncc4c3nc(N)n3nc(-c5ccco5)nc43)CC2)cc1 (single isomer, unassigned) [Compound A1b, 2-(5-amino-2-(furan-2-yl)-7H-pyrazolo[4,3-e][1,2,4]triazolo[1,5-c]pyrimidin-7-yl)-1-(4-(4-(2-methoxyethoxy)phenyl)piperazin-1-yl)propan-1-one]",7.40
17,"Nc1nc2c(cnn2C(C(=O)N2CCN(c3ccc(F)cc3)CC2)c2ccccc2)c2nc(-c3ccco3)nn12 (centres unmarked) [Compound A49, 2-(5-amino-2-(furan-2-yl)-7H-pyrazolo[4,3-e][1,2,4]triazolo[1,5-c]pyrimidin-7-yl)-1-(4-(4-fluorophenyl)piperazin-1-yl)-2-phenylethan-1-one]",8.49
18,"CNCCOc1ccc(N2CCN(C(=O)C(C)(c3ccccc3)n3ncc4c3nc(N)n3nc(-c5ccco5)nc43)CC2)cc1 (centres unmarked) [Compound A107, 2-(5-amino-2-(furan-2-yl)-7H-pyrazolo[4,3-e][1,2,4]triazolo[1,5-c]pyrimidin-7-yl)-1-(4-(4-(2-(methylamino)ethoxy)phenyl)piperazin-1-yl)-2-phenylpropan-1-one]",8.32
19,"COCCOc1ccc(N2CCN(C(=O)C(C)(C)n3ncc4c3nc(N)n3nc(-c5ccco5)nc43)CC2)cc1 [Compound A3, 2-(5-amino-2-(furan-2-yl)-7H-pyrazolo[4,3-e][1,2,4]triazolo[1,5-c]pyrimidin-7-yl)-1-(4-(4-(2-methoxyethoxy)phenyl)piperazin-1-yl)-2-methylpropan-1-one]",6.44

# More lines, now with the values ahead:
row,pIC50,SMILES
1,8.72,"Nc1nc2c(cnn2C(C(=O)N2CCc3ccccc3C2)c2ccccc2)c2nc(-c3ccco3)nn12 (centres unmarked) [Compound B3, 2-(5-amino-2-(furan-2-yl)-7H-pyrazolo[4,3-e][1,2,4]triazolo[1,5-c]pyrimidin-7-yl)-1-(3,4-dihydroisoquinolin-2(1H)-yl)-2-phenylethan-1-one]"
2,6.62,"CCC(C(=O)N1CCN(c2ccc(OCCOCCOC)cc2)CC1)n1cc2c(nc(N)n3nc(-c4ccco4)nc23)n1 (centres unmarked) [Compound C8, 2-(5-amino-2-(furan-2-yl)-8H-pyrazolo[4,3-e][1,2,4]triazolo[1,5-c]pyrimidin-8-yl)-1-(4-(4-(2-(2-methoxyethoxy)ethoxy)phenyl)piperazin-1-yl)butan-1-one]"
3,6.68,"CCCC(C(=O)N1CCN(c2ccc(OCCOC)cc2)CC1)n1cc2c(nc(N)n3nc(-c4ccco4)nc23)n1 (single isomer, unassigned) [Compound C5b]"
4,8.47,"Nc1nc2c(cnn2C(C(=O)N2CCc3cccnc3C2)c2ccccc2)c2nc(-c3ccco3)nn12 (centres unmarked) [Compound B9, 2-(5-amino-2-(furan-2-yl)-7H-pyrazolo[4,3-e][1,2,4]triazolo[1,5-c]pyrimidin-7-yl)-1-(5,8-dihydro-1,7-naphthyridin-7(6H)-yl)-2-phenylethan-1-one]"
5,7.52,"CN1CCN(C(=O)C(C)(c2ccccc2)n2ncc3c2nc(N)n2nc(-c4ccco4)nc32)CC1 (centres unmarked) [Compound B27, 2-(5-amino-2-(furan-2-yl)-7H-pyrazolo[4,3-e][1,2,4]triazolo[1,5-c]pyrimidin-7-yl)-1-(4-methylpiperazin-1-yl)-2-phenylpropan-1-one]"
6,8.52,"Nc1nc2c(cnn2C(C(=O)N2CCc3ccc(Cl)cc3C2)c2ccccc2)c2nc(-c3ccco3)nn12 (centres unmarked) [Compound B5, 2-(5-amino-2-(furan-2-yl)-7H-pyrazolo[4,3-e][1,2,4]triazolo[1,5-c]pyrimidin-7-yl)-1-(7-chloro-3,4-dihydroisoquinolin-2(1H)-yl)-2-phenylethan-1-one]"
7,7.01,"CC(C(=O)N1CCNCC1)(c1ccccc1)n1ncc2c1nc(N)n1nc(-c3ccco3)nc21 (centres unmarked) [Compound B21, 2-(5-amino-2-(furan-2-yl)-7H-pyrazolo[4,3-e][1,2,4]triazolo[1,5-c]pyrimidin-7-yl)-2-phenyl-1-(piperazin-1-yl)propan-1-one]"
8,8.66,"Nc1nc2c(cnn2C(C(=O)N2CCc3ccc(F)cc3C2)c2ccccc2)c2nc(-c3ccco3)nn12 (centres unmarked) [Compound B11, 2-(5-amino-2-(furan-2-yl)-7H-pyrazolo[4,3-e][1,2,4]triazolo[1,5-c]pyrimidin-7-yl)-1-(7-fluoro-3,4-dihydroisoquinolin-2(1H)-yl)-2-phenylethan-1-one]"
9,7.92,"CC(C(=O)N1CCC1)(c1ccccc1)n1ncc2c1nc(N)n1nc(-c3ccco3)nc21 (centres unmarked) [Compound B24, 2-(5-amino-2-(furan-2-yl)-7H-pyrazolo[4,3-e][1,2,4]triazolo[1,5-c]pyrimidin-7-yl)-1-(azetidin-1-yl)-2-phenylpropan-1-one]"
10,7.67,"Nc1nc2c(cnn2C(C(=O)N2CCc3ccccc3C2)c2ccccc2)c2nc(-c3ccco3)nn12 (single isomer, unassigned) [Compound B3a]"
